Measured values as given in patent EP0565593B1, “REDUCING PESTICIDAL INTERACTIONS IN CROPS” (priority 1990, dated 1992).
Read-outs that look alike come from different tables or passages of the source.

What was measured:
[1] = tested on: Corn; experiment: Greenhouse test Procedure I with PPI or POE herbicide and foliar insecticide (Example 5; Table 5); assay type: in vivo
Description: (§1) Containers were filled and compacted with a fumigated silt loam top soil to a depth of about 1.3 cm from the top of the container. A first container was designated as an untreated control, a second container was designated as a herbicide control, and a third container was designated as a herbicide + antidote test container. Each of the containers was seeded with a crop species. A measured amount of herbicide dispersed or dissolved in acetone was applied to a measured quantity of soil. To this same quantity of soil treated with herbicide, there was added a measured amount of antidote dispersed or dissolved in acetone. The quantity of soil treated with the herbicide and antidote was thoroughly mixed to incorporate the herbicide and antidote in the soil uniformly. The seed bed in the third container of soil was covered with the soil treated with the herbicide and antidote and the container was leveled. For each test series, the seed beds of the first and second containers were likewise covered by soil layers. the cover layer of the first container was not treated with herbicide or antidote.
(§2) Insecticide application was made as described in the tests in the examples below. The containers were then placed on a bench in a greenhouse and sub-irrigated as required for the duration of the test.
(§3) Said herbicide and antidote were sequentially pipetted onto cover layers, which were spread over the seed beds and subirrigated as in Procedure I and allowed to grow to a height of about 10 cm over a period of 11 days. Herbicide No. 1 and Insecticide No. 2 were then sequentially sprayed on the plant foliage. Observations were made three (3) weeks after initial treatment, 10 days after foliar treatment).

[2] = tested on: VELE (velvetleaf); experiment: as above; assay type: in vivo, Abutilon theophrasti
Description: as §1, §2, §3

[3] = tested on: SJCA; experiment: Greenhouse test Procedure IV: herbicide, biocide and antidote PPI, weed SJCA (Examples 53-55; Tables 52-54); assay type: in vivo; details: all PPI; for % Inhibition SJCA: Herbicide No. 1, rate printed as '-'
Text: The test in this example paralleled that in Example 51, except the procedure was according to Procedure IV above and the herbicides used were No. 1 (MON-12000); No. 21 (XRD-498) and, again, No. 18 (PURSUIT); the biocide was, again, MOCAP®. Observations were taken thirteen (13) days after PPI treatment with biocide and antidote.
This test was identical to that in Example 52, except for use of a different biocide, DIAZINON (Biocide No. 5, a nematicide and soil insecticide).
This test was also identical to that in the preceding two examples, except that the biocide was malathion (No. 7, an insecticide).
This test was identical to the preceding ones, except the biocide was DPX-43898 (No. 6, active ingredient in FORTRESS® insecticide, a soil insecticide). Also, the observation time was fourteen (14) days after PPI initiation.

[4] = tested on: Corn; experiment: whole plant or invertebrate; details: Zea mays, iv, 312 h
[5] = Antidote 1 0.14 + Herbicide 1 0.14 Kg/Ha PPI, 3 weeks
[6] = Antidote 1 0.56 + Herbicide 1 0.56 Kg/Ha PPI, 3 weeks
[7] = Antidote 1 2.24 + Herbicide 1 2.24 Kg/Ha PPI, 3 weeks
[8] = Insecticide 2 1.68 (foliar) + Antidote 1 0.14 + Herbicide 1 0.14 Kg/Ha PPI, 3 weeks
[9] = Insecticide 2 1.68 (foliar) + Antidote 1 2.24 + Herbicide 1 2.24 Kg/Ha PPI, 3 weeks
[10] = Insecticide 2 1.68 (foliar) + Antidote 1 2.24 Kg/Ha PPI, no herbicide, 3 weeks
[11] = Herbicide 1 0.07 Kg/Ha POE, 10 days after foliar treatment
[12] = Herbicide 1 0.14 Kg/Ha PPI, 3 weeks
[13] = Herbicide 1 0.28 Kg/Ha POE, 10 days after foliar treatment
[14] = Herbicide 1 0.56 Kg/Ha PPI, 3 weeks
[15] = Herbicide 1 1.12 Kg/Ha POE, 10 days after foliar treatment
[16] = Herbicide 1 2.24 Kg/Ha PPI, 3 weeks
[17] = Insecticide 2 1.68 (foliar) + Herbicide 1 0.14 Kg/Ha PPI, 3 weeks
[18] = Insecticide 2 1.68 (foliar) + Herbicide 1 0.56 Kg/Ha PPI, 3 weeks
[19] = Insecticide 2 1.68 (foliar) + Herbicide 1 2.24 Kg/Ha PPI, 3 weeks
[20] = Insecticide 2 1.68 + Herbicide 1 0.07 Kg/Ha POE, 10 days after foliar treatment
[21] = Insecticide 2 1.68 + Herbicide 1 0.28 Kg/Ha POE, 10 days after foliar treatment

## CC1(C)OC(c2ccco2)CN1C(=O)C(Cl)Cl (stereo not drawn) [Antidote No. 1, Oxazolidine, 3-(dichloroacetyl)-2,2-dimethyl-5-(2-furanyl)-]
[1]; [5]
  % Injury Corn: 0%
[1]; [6]
  % Injury Corn: 5%
[1]; [7]
  % Injury Corn: 0%
[1]; Ex. 5: PPI Herbicide No. 1 with or without Insecticide No. 2
  safening: safened PPI herbicide treatments
[1]; [8]
  % Injury Corn: 0%
[1]; [9]
  % Injury Corn: 0%
[1]; [10]
  % Injury Corn: 0%
[2]; [5]
  % Injury VELE: 85%
[2]; [6]
  % Injury VELE: 80%
[2]; [7]
  % Injury VELE: 93%
[2]; [8]
  % Injury VELE: 90%
[2]; Insecticide 2 1.68 (foliar) + Antidote 1 0.56 + Herbicide 1 0.56 Kg/Ha PPI, 3 weeks
  % Injury VELE: 93%
[2]; [9]
  % Injury VELE: 93%
[2]; [10]
  % Injury VELE: 0%

## COC(=O)c1c(Cl)nn(C)c1S(=O)(=O)NC(=O)Nc1nc(OC)cc(OC)n1 [Herbicide No. 1, N-[(4,6-dimethoxypyrimidin-2-yl)aminocarbonyl]-3-chloro-4-methoxycarbonyl-5-sulfonamide, reference compound]
[1]; [11]
  % Injury Corn: 0%
[1]; [12]
  % Injury Corn: 5%
[1]; [13]
  % Injury Corn: 15%
[1]; [14]
  % Injury Corn: 28%
[1]; [15]
  % Injury Corn: 7%
[1]; [16]
  % Injury Corn: 58%
[1]; [17]
  % Injury Corn: 18%
[1]; [18]
  % Injury Corn: 10%
[1]; [19]
  % Injury Corn: 87%
[1]; [20]
  % Injury Corn: 10%
[1]; [21]
  % Injury Corn: 10%
[2]; [11]
  % Injury VELE: 30%
[2]; [12]
  % Injury VELE: 78%
[2]; [13]
  % Injury VELE: 30%
[2]; [14]
  % Injury VELE: 93%
[2]; [15]
  % Injury VELE: 20%
[2]; [16]
  % Injury VELE: 95%
[2]; [17]
  % Injury VELE: 90%
[2]; [18]
  % Injury VELE: 90%
[2]; [19]
  % Injury VELE: 98%
[2]; [20]
  % Injury VELE: 23%
[2]; [21]
  % Injury VELE: 42%
[3]; 312 h, Table 52, Herbicide No. 1 0.14 Kg/Ha, where applied Biocide No. 5 8.96 kg/Ha and antidote 4.48 Kg/Ha, observed 13 days after treatment
  inhibition at 140 g/ha: 70%
[3]; Table 53, where applied Biocide No. 7 8.96 kg/Ha and antidote 4.48 Kg/Ha, observed 13 days after treatment
  % Inhibition SJCA: 75%
[3]; Table 54, where applied Biocide No. 6 8.96 kg/Ha and antidote 4.48 Kg/Ha, observed 14 days after PPI initiation
  % Inhibition SJCA: 65%
[4]; read-out: % Inhibition Corn, Herb. No. 1 0.14 kg/Ha alone, PPI, 13 days after planting
  inhibition at 140 g/ha: 10%
[4]; read-out: % Inhibition Corn, Table 51, Herbicide No. 1 0.14 Kg/Ha, where applied Biocide No. 8 8.96 kg/Ha and antidote 4.48 Kg/Ha, all PPI, observed 13 days after treatment
  inhibition at 140 g/ha: 0%
[4]; read-out: % Inhibition Corn, Table 52, Herbicide No. 1 0.14 Kg/Ha, where applied Biocide No. 5 8.96 kg/Ha and antidote 4.48 Kg/Ha, all PPI, observed 13 days after treatment
  inhibition at 140 g/ha: 0%
